What was measured:
Format in all cases: biochemical
adenosine A2B receptor = adenosine A2B receptor (Homo sapiens (Human), UniProt P29275); assay: Adenosine receptor activity assay (Table 1), A2B activity; conditions: for Ratio: A2A activity to the A2B activity, A2A/A2B; for IC50: read-out: Ave A2B cAMP IC50
adenosine A1 receptor = adenosine A1 receptor (Homo sapiens (Human), UniProt P30542); assay: Adenosine receptor activity assay (Table 1), A1 cAMP
Method: (§1) Table 1. Compounds (e.g., Adenosine Receptor modulators) and activity assay results. The legend is as follows: A=<10 nM; B=10-50 nM; C=50-100 nM; D=100-500; and E=>500 nM. The ratio corresponds to the A2A activity to the A2B activity; or A2A/A2B.

adenosine A2A receptor = adenosine A2A receptor (Homo sapiens (Human), UniProt P29274); assay: Adenosine receptor activity assay (Table 1), A2A activity; conditions: read-out: Ave A2A cAMP IC50
adenosine A3 receptor = adenosine A3 receptor (Homo sapiens (Human), UniProt P0DMS8); assay: Adenosine receptor activity assay (Table 1), A3 cAMP
Method: as §1

Chain of adenosine A1 receptor (P30542 whole entry): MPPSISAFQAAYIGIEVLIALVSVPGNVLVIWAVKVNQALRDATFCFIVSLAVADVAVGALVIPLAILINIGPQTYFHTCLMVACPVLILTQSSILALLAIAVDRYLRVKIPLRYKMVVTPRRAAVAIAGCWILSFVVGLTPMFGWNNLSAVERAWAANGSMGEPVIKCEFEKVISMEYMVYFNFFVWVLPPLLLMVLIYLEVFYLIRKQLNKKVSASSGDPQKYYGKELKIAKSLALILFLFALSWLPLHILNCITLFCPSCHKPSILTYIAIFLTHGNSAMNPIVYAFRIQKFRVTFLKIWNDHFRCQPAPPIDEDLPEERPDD
Chain of adenosine A2B receptor (P29275 whole entry): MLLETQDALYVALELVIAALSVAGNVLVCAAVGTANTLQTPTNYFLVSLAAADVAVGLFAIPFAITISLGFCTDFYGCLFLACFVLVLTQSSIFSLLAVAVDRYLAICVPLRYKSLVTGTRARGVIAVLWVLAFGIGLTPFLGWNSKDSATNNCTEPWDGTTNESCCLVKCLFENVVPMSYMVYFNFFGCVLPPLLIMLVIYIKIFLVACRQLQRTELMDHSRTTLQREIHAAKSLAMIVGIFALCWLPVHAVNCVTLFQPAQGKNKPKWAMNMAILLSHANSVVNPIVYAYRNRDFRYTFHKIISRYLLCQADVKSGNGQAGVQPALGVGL
Chain of adenosine A3 receptor (P0DMS8 whole entry): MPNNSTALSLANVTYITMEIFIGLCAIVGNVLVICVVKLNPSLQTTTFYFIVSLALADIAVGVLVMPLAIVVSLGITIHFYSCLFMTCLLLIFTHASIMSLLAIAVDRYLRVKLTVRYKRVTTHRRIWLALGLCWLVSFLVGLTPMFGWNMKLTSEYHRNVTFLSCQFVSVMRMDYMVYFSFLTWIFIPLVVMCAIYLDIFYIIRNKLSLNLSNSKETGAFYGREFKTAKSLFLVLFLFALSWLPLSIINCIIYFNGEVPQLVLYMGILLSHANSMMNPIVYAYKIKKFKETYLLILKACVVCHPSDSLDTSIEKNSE
Chain of adenosine A2A receptor (P29274 whole entry): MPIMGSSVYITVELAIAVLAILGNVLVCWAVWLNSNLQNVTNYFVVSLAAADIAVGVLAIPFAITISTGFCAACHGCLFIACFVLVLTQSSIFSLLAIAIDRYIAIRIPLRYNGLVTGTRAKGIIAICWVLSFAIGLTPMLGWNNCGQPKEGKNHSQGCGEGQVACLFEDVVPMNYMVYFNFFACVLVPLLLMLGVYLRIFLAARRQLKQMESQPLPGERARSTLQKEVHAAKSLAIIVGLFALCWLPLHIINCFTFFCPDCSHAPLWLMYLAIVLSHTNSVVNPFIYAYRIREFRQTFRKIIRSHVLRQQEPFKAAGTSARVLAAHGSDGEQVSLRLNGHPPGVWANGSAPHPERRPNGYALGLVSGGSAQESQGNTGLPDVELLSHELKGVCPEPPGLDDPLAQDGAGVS

| Structure (SMILES) | Ratio (adenosine A2B receptor) | IC50 (adenosine A2B receptor) | IC50 (adenosine A1 receptor) | IC50 (adenosine A2A receptor) | IC50 (adenosine A3 receptor) |
| --- | --- | --- | --- | --- | --- |
| Cc1cc2nc(N[C@@H](C)c3cncc(F)c3)nc(C(=O)N3CC[C@H](CN)C3)c2s1 [Example Z554, ((R)-3-(Aminomethyl)pyrrolidin-1-yl)(2-(((S)-1-(5-fluoropyridin-3-yl)ethyl)amino)-6-methylthieno[3,2-d]pyrimidin-4-yl)methanone] | 547.59 | < 10 nM | > 500 nM | > 500 nM | > 500 nM |
| C[C@H](Nc1nc(C(=O)N2CC(NC(=O)CC(C)(C)C)C2)c2sccc2n1)c1cncc(F)c1 [Example Z557, (S)—N-(1-(2-((1-(5-Fluoropyridin-3-yl)ethyl)amino)thieno[3,2-d]pyrimidine-4-carbonyl)azetidin-3-yl)-3,3-dimethylbutanamide] | 1.92 | 10 to 50 nM | > 500 nM | 10 to 50 nM | > 500 nM |
| CC(C)C(=O)NC1CN(C(=O)c2nc(N[C@@H](C)c3cncc(F)c3)nc3ccsc23)C1 [Example Z558, (S)—N-(1-(2-((1-(5-Fluoropyridin-3-yl)ethyl)amino)thieno[3,2-d]pyrimidine-4-carbonyl)azetidin-3-yl)isobutyramide] | 3.43 | < 10 nM | > 500 nM | 10 to 50 nM | > 500 nM |
| Cc1csc2c(C(=O)N3CC(NC(=O)C(C)(C)C)C3)nc(N[C@@H](C)c3ccccn3)nc12 [Example Z559, (S)—N-(1-(7-Methyl-2-((1-(pyridin-2-yl)ethyl)amino)thieno[3,2-d]pyrimidine-4-carbonyl)azetidin-3-yl)pivalamide] | 1.93 | 10 to 50 nM | > 500 nM | 10 to 50 nM | 100 to 500 nM |
| CN[C@@H]1CCN(C(=O)c2nc(N[C@@H](C)c3cncc(F)c3)nc3cc(C)sc23)C1 [Example Z560, (2-(((S)-1-(5-Fluoropyridin-3-yl)ethyl)amino)-6-methylthieno[3,2-d]pyrimidin-4-yl)((R)-3-(methylamino)pyrrolidin-1-yl)methanone] | 59.47 | 50 to 100 nM | > 500 nM | > 500 nM | > 500 nM |
| CN[C@H]1CCN(C(=O)c2nc(N[C@@H](C)c3cncc(F)c3)nc3cc(C)sc23)C1 [Example Z561, (2-(((S)-1-(5-Fluoropyridin-3-yl)ethyl)amino)-6-methylthieno[3,2-d]pyrimidin-4-yl)((S)-3-(methylamino)pyrrolidin-1-yl)methanone] | 140.19 | 50 to 100 nM | > 500 nM | > 500 nM | > 500 nM |
| Cc1cc2nc(N[C@@H](C)c3cncc(F)c3)nc(C(=O)NCCC3CCN(C)CC3)c2s1 [Example Z562, (S)-2-((1-(5-Fluoropyridin-3-yl)ethyl)amino)-6-methyl-N-(2-(1-methylpiperidin-4-yl)ethyl)thieno[3,2-d]pyrimidine-4-carboxamide] | 127.97 | 10 to 50 nM | > 500 nM | > 500 nM | > 500 nM |
| C[C@H](Nc1nc(C(=O)N2CC(CC(=O)NC(C)(C)C)C2)c2sccc2n1)c1cncc(F)c1 [Example Z571, (S)—N-(tert-Butyl)-2-(1-(2-((1-(5-fluoropyridin-3-yl)ethyl)amino)thieno[3,2-d]pyrimidine-4-carbonyl)azetidin-3-yl)acetamide] | 1.51 | 10 to 50 nM | > 500 nM | 10 to 50 nM | > 500 nM |
| Cc1cc2nc(N[C@@H](C)c3cncc(F)c3)nc(C(=O)N3CC(C(=O)OC(C)(C)C)C3)c2s1 [Example Z573, tert-Butyl (S)-1-(2-((1-(5-fluoropyridin-3-yl)ethyl)amino)-6-methylthieno[3,2-d]pyrimidine-4-carbonyl)azetidine-3-carboxylate] | 3.44 | 10 to 50 nM | > 500 nM | 100 to 500 nM | > 500 nM |
| Cc1cc2nc(N[C@@H](C)c3cncc(F)c3)nc(C(=O)N3CC(CS(C)(=O)=O)C3)c2s1 [Example Z575, (S)-(2-((1-(5-Fluoropyridin-3-yl)ethyl)amino)-6-methylthieno[3,2-d]pyrimidin-4-yl)(3-((methylsulfonyl)methyl)azetidin-1-yl)methanone] | 75.64 | < 10 nM | > 500 nM | > 500 nM | > 500 nM |
| CNC(=O)NCC1CN(C(=O)c2nc(N[C@@H](C)c3cncc(F)c3)nc3ccsc23)C1 [Example Z576, (S)-1-((1-(2-((1-(5-Fluoropyridin-3-yl)ethyl)amino)thieno[3,2-d]pyrimidine-4-carbonyl)azetidin-3-yl)methyl)-3-methylurea] | 26.03 | < 10 nM | > 500 nM | 100 to 500 nM | > 500 nM |
| C[C@H](Nc1nc(C(=O)N2CC(CNC(=O)N(C)C)C2)c2sccc2n1)c1cncc(F)c1 [Example Z577, (S)-3-((1-(2-((1-(5-Fluoropyridin-3-yl)ethyl)amino)thieno[3,2-d]pyrimidine-4-carbonyl)azetidin-3-yl)methyl)-1,1-dimethylurea] | 6.37 | 10 to 50 nM | > 500 nM | 50 to 100 nM | > 500 nM |
| CC(C)C(=O)NCC1CN(C(=O)c2nc(N[C@@H](C)c3cncc(F)c3)nc3ccsc23)C1 [Example Z578, (S)—N-((1-(2-((1-(5-Fluoropyridin-3-yl)ethyl)amino)thieno[3,2-d]pyrimidine-4-carbonyl)azetidin-3-yl)methyl)isobutyramide] | 4.95 | 10 to 50 nM | > 500 nM | 50 to 100 nM | > 500 nM |
| C[C@H](Nc1nc(C(=O)N2CC(C(=O)NOC(C)(C)C)C2)c2sccc2n1)c1cncc(F)c1 [Example Z579, (S)—N-(tert-Butoxy)-1-(2-((1-(5-fluoropyridin-3-yl)ethyl)amino)thieno[3,2-d]pyrimidine-4-carbonyl)azetidine-3-carboxamide] | 1.29 | 50 to 100 nM | > 500 nM | 50 to 100 nM | > 500 nM |
| Cc1cc2nc(N[C@@H](C)c3cncc(F)c3)nc(C(=O)N3CC(CC(=O)OC(C)(C)C)C3)c2s1 [Example Z580, tert-Butyl (S)-2-(1-(2-((1-(5-Fluoropyridin-3-yl)ethyl)amino)-6-methylthieno[3,2-d]pyrimidine-4-carbonyl)azetidin-3-yl)acetate] | 1.19 | 10 to 50 nM | > 500 nM | 10 to 50 nM | 100 to 500 nM |
| C[C@H](Nc1nc(C(=O)N2CC(CNC(=O)OCC(C)(C)C)C2)c2sccc2n1)c1cncc(F)c1 [Example Z581, Neopentyl (S)-((1-(2-((1-(5-fluoropyridin-3-yl)ethyl)amino)thieno[3,2-d]pyrimidine-4-carbonyl)azetidin-3-yl)methyl)carbamate] | 1.68 | 10 to 50 nM | > 500 nM | 10 to 50 nM | > 500 nM |
| C[C@H](Nc1nc(C(=O)N2CC(NC(=O)OC(C)(C)C)C2)c2sccc2n1)c1cncc(F)c1 [Example Z583, tert-Butyl (S)-(1-(2-((1-(5-fluoropyridin-3-yl)ethyl)amino)thieno[3,2-d]pyrimidine-4-carbonyl)azetidin-3-yl)carbamate] | 0.37 | 10 to 50 nM | > 500 nM | 10 to 50 nM | > 500 nM |
| CNC(=O)N1CCN(C(=O)c2nc(N[C@@H](C)c3cncc(F)c3)nc3ccsc23)C1 [Example Z585, (S)-3-(2-((1-(5-Fluoropyridin-3-yl)ethyl)amino)thieno[3,2-d]pyrimidine-4-carbonyl)-N-methylimidazolidine-1-carboxamide] | 21.44 | 10 to 50 nM | > 500 nM | 100 to 500 nM | > 500 nM |
| Cc1cc2nc(N[C@@H](C)c3cncc(F)c3)nc(C(=O)N3CC(CNC(=O)CC(C)(C)C)C3)c2s1 [Example Z586, (S)—N-((1-(2-((1-(5-Fluoropyridin-3-yl)ethyl)amino)-6-methylthieno[3,2-d]pyrimidine-4-carbonyl)azetidin-3-yl)methyl)-3,3-dimethylbutanamide] | 2.27 | 10 to 50 nM | > 500 nM | 50 to 100 nM | > 500 nM |
| Cc1cc2nc(N[C@@H](C)c3cncc(F)c3)nc(C(=O)N3CC(NC(=O)C(C)C)C3)c2s1 [Example Z588, (S)—N-(1-(2-((1-(5-Fluoropyridin-3-yl)ethyl)amino)-6-methylthieno[3,2-d]pyrimidine-4-carbonyl)azetidin-3-yl)isobutyramide] | 0.26 | 10 to 50 nM | > 500 nM | < 10 nM | 100 to 500 nM |
| Cc1cc2nc(N[C@@H](C)c3cncc(F)c3)nc(C(=O)N3CC(NC(=O)OCC(C)(C)C)C3)c2s1 [Example Z591, Neopentyl (S)-(1-(2-((1-(5-fluoropyridin-3-yl)ethyl)amino)-6-methylthieno[3,2-d]pyrimidine-4-carbonyl)azetidin-3-yl)carbamate] | 0.14 | 10 to 50 nM | > 500 nM | < 10 nM | 10 to 50 nM |
| Cc1cc2nc(N[C@@H](C)c3cncc(F)c3)nc(C(=O)N3CC(C(=O)NOC(C)(C)C)C3)c2s1 [Example Z592, (S)—N-(tert-Butoxy)-1-(2-((1-(5-fluoropyridin-3-yl)ethyl)amino)-6-methylthieno[3,2-d]pyrimidine-4-carbonyl)azetidine-3-carboxamide] | 4.67 | 10 to 50 nM | > 500 nM | 50 to 100 nM | > 500 nM |

Reference: patent publication US11254686B1 (Corvus Pharmaceuticals, Inc., priority 2017, dated 2022)
